Experimental data from US20110207723A1, “NOVEL FUSED AMINODIHYDROTHIAZINE DERIVATIVE” (EISAI R&D MANAGEMENT CO., LTD., priority 2008, published 2011).

Each compound was assayed on Aβ42 production (assay: Quantification of Aβ peptide in culture of neurons from rat fetus brain (Aβ42 ELISA)). Settings: Neuron, 72 h, rat primary neuronal culture (embryonic day 18 Wistar rat cerebral cortex), medium collected three days after addition of compound, read-out: Aβ42 production reducing effect IC50.
Type: cell-based
Procedure, shortened: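 Primary cortical neurons from E18 Wistar rat embryos, cultured 4 days in Neurobasal/B27/2-ME, then treated 3 days with compound in Neurobasal/B27 (final DMSO 1% or less; DMSO control). Conditioned medium collected; Aβx-42 measured undiluted by sandwich ELISA kit.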

SMILES | IC50
NC1=N[C@@]2(c3cc(NC(=O)c4ccc(Cl)cn4)ccc3F)CO[C@@H](CF)C[C@H]2CS1 [Example 45, N-[3-((4aR,6R,8aS)-2-amino-6-fluoromethyl-4,4a,5,6-tetrahydro-7-oxa-3-thia-1-azanaphthalen-8a-yl)-4-fluorophenyl]-5-chloropyridine-2-carboxamide] | 2 nM
NC1=N[C@@]2(c3cc(NC(=O)c4ccc(C(F)(F)F)cn4)ccc3F)CO[C@@H](CF)C[C@H]2CS1 [Example 46, N-[3-((4aR,6R,8aS)-2-amino-6-fluoromethyl-4,4a,5,6-tetrahydro-7-oxa-3-thia-1-azanaphthalen-8a-yl)-4-fluorophenyl]-5-trifluoromethylpyridine-2-carboxamide] | 1 nM
NC1=N[C@@]2(c3cc(NC(=O)c4cnc(OCF)cn4)ccc3F)CO[C@@H](CF)C[C@H]2CS1 [Example 47, N-[3-((4aR,6R,8aS)-2-amino-6-fluoromethyl-4,4a,5,6-tetrahydro-7-oxa-3-thia-1-azanaphthalen-8a-yl)-4-fluorophenyl]-5-fluoromethoxypyrazine-2-carboxamide] | 4 nM
NC1=N[C@@]2(c3cc(NC(=O)c4cnc(C(F)F)cn4)ccc3F)CO[C@@H](CF)C[C@H]2CS1 [Example 48, N-[3-((4aR,6R,8aS)-2-amino-6-fluoromethyl-4,4a,5,6-tetrahydro-7-oxa-3-thia-1-azanaphthalen-8a-yl)-4-fluorophenyl]-5-difluoromethylpyrazine-2-carboxamide] | 2 nM
NC1=N[C@@]2(c3cc(-c4cccnc4F)ccc3F)CO[C@@H](CF)C[C@H]2CS1 [Example 60, (4aR,6R,8aS)-8a-[2-fluoro-5-(2-fluoropyridin-3-yl)phenyl]-6-fluoromethyl-4,4a,5,6,8,8a-hexahydro-7-oxa-3-thia-1-azanaphthalen-2-ylamine] | 32 nM
NC1=N[C@@]2(c3cc(-c4cccnc4F)ccc3F)CO[C@@H](COCc3ccccc3)C[C@H]2CS1 [Example 66, (4aR,6R,8aS)-8a-[2-fluoro-5-(2-fluoropyridin-3-yl)phenyl]-6-benzyloxymethyl-4,4a,5,6,8,8a-hexahydro-7-oxa-3-thia-1-azanaphthalen-2-ylamine] | 263 nM
